Data as given in patent US20180237362A1, “NOVEL POLYGODIAL ANALOGS FOR THE TREATMENT OF CANCER AND OTHER PROLIFERATIVE DISEASES” (THE BOARD OF REGENTS OF THE UNIVERSITY OF TAXAS SYSTEM, priority 2015, published 2018).

Columns and labels:
[1] = test system: Cal27-derived tumors; experiment: Mouse xenograft model, Cal27; type: in vivo, athymic nude mice
Experimental: Six-week old female athymic nude mice were used in laminar air-flow cabinet in pathogen-free conditions. They were acclimated for one week prior to the start of the study and kept at controlled temperature and humidity, with food and water. Mice were injected subcutaneously in the flank with 2×10^6 Cal27 cells or HeLa cells in 0.1 mL of sterile PBS. When the tumors reached 100 mm^3 (Cal27) and 150 mm^3 (HeLa), the mice were stratified into 4 groups, […], polygodial, P10, P3 and P27 at the concentrations noted in the figure legends.

[2] = test system: transgenic mouse glioma cells (neurosphere cultures); experiment: CytoTox-Fluor cytotoxicity assay, neurosphere glioma cultures; type: cell-based; conditions: cdkn2a deletion with PDGFB or EGFRvIII; 24 h; 5 at 20 μM, CBD at 10 μM
Experimental: FIGS. 5A-D. Activity of 5 against neurosphere glioma cell cultures with clinically relevant mutations. Transgenic mouse glioma cells of defined molecular subtypes were generated by forced expression of EGFRvIII (classical GBM subtype), PDGFB (proneural GBM subtype) in cdkn2a-deficient and cdkn2a/TRPV1-doubly deficient subventricular neural precursors (NPC). These primary cell cultures were treated for 24 hours either with 10 μM CBD versus a corresponding vehicle-control (containing 0.01% DMSO) or 20 μM of 5 versus vehicle control (0.02% DMSO). Cytotoxicity was measured 24 h after incubation and base-line cytotoxicity levels in the controls were arbitrarily defined as 1. Read-outs from treated cells were normalized to their respective vehicle controls and -fold change of relative cytotoxicity was calculated. Each bar represents the mean±SD from two independent experiments; statistical significance, as determined by unpaired t-tests, is indicated: *** represents p<0.001; ** p<0.005; * p=0.0257; ns not significant).
Human mammary carcinoma MCF-7 (ATCC HTB22) cells were cultured in RPMI supplemented with 10% FBS. […]
The CytoTox-Fluor cytotoxicity assay from Promega has been used according to manufacturer's instructions. […] After 2 hours of incubation at 37° C., the fluorescence intensity was measured using the Tecan InfiniteF200 fluorescence plate reader (485 nm Ex/520 nm Em). […]

inflammatory response, Cal27 xenograft mice ([1]; days 2-4, intra-tumor injection)	SMILES	anti-tumor effect, Cal27-derived tumors ([1]; 40 μg/100 μl intra-tumor injection every other day for 18 days, no significant difference between polygodial and P27)	cytotoxicity against GBM neurosphere cultures [2]
notable inflammatory response	CC1(C)CCC[C@]2(C)[C@@H](C=O)C(C=O)=CC[C@@H]12 [Compound 1, Polygodial]	significant anti-tumor effects	
	COC(=O)/C=C/C1=CC[C@H]2C(C)(C)CCC[C@]2(C)[C@H]1C=O [Compound 5]		effectiveness similar to that of cannabidiol (CBD)
